These results are taken from US11702403B2, “EAAT2 activators and methods of using thereof” (OHIO STATE INNOVATION FOUNDATION, priority 2018, dated 2023).

The subject of assay [1] is CA3-CA1 LTP in the hippocampus. Briefly: Long-term potentiation (LTP) in acute hippocampal slices of treated wild-type mice. The class given is in vivo. The settings on record: 10 mg/kg for 7 days, vs vehicle, up to 30 min after LTP induction. The method, then:
Mice were treated with compound at 40 mg/kg (or as depicted) and forebrains were harvested for the gliosome preparation 24 hr (or as described) post-treatment. FIG. 2A: Western blots show dose-dependent increase of EAAT2 protein levels. FIG. 2B: Time-dependent fold increase in EAAT2 protein expression in response to compound treatment at 4 hours (1.54±0.13) and 24 hours (1.98±0.19) post-treatment. Quantification of EAAT2 expression time course (normalized to flotilin; n=4/group). Data represented as mean SEM and analyzed using one-way ANOVA with Tukey post-hoc test. *p<0.05, **p<0.01. FIG. 2C: Compound treatment enhances CA3-CA1 LTP in the hippocampus. Mice were treated with vehicle or compound for seven days and acute hippocampal sections were collected for LTP recordings. […] Data represented as mean SEM analyzed using one-way ANOVA with Bonferroni post-hoc tests. […]
At 24 hours post-treatment, mice were euthanized and forbrains were harvested. […] Acute hippocampal slices were then collected and assessed for changes in long-term potentiation (LTP).
Wild-type C57BL/6 mice (2-3 months old) were treated orally with compound 101 at 0.01, 0.033, 0.1, 0.33, 1, 3.33, 10, 20, 40, 60, and 100 mg/kg/day (voluntary ingestion of compound in honey) for seven or 28 days. […] Mice were then euthanized and acute hippocampal slices were collected and assessed for changes in long-term potentiation (LTP).

In the next assay the test system is tau. As to the kind of experiment: Tau expression and phosphorylation in total cell lysates and Sarkosyl insoluble fractions of rTg4510 forebrains. Format: in vivo, mice. The source says: (§1) FIGS. 7A and 7B illustrate the effect of compound treatment on phosphorylated tau in total lysates (TCL) and in the Sarkosyl insoluble (P3) fraction (n=4/group). Dashed-line represents expression in rTg4510 vehicle group.
We, therefore, investigated if the compound could reduce toxic forms of tau. […] Four antibodies, which recognized different phosphorylation sites or pathological forms of tau, were used: PHF1 recognized Ser 396 & Ser404; AT8 recognized Ser202 & Thr205; MC-1 recognized neurofibrillary tangles and Tau5 recognized all of tau (phosphorylated and non-phosphorylated isoforms). […] There was an especially significant reduction in the 64 kDa (hyperphosphorylated) variant for each antibody tested; it has been reported that the 64 kDa variant was strongly correlated with neurodegeneration.
[…] The phosphorylation (activation) state of kinases that have been reported to target tau as a substrate were assessed. […] This form of phosphorylation inhibits GSK3β activity. Therefore, inactivation of the GSK3β kinase may mediate reduced tau phosphorylation in rTg4510 mice after compound treatment.

Assay [2] has as its system EAAT2. Briefly: EAAT2 protein levels in forebrain gliosomes of wild-type FVB/NJ mice by Western blot. The class given is in vivo. Conditions: oral 1, 2.5, 5, 10, 20, 40 mg/kg, 24 hours post-treatment. As for the experimental part:
Mice were treated with compound at 40 mg/kg (or as depicted) and forebrains were harvested for the gliosome preparation 24 hr (or as described) post-treatment. FIG. 2A: Western blots show dose-dependent increase of EAAT2 protein levels. FIG. 2B: Time-dependent fold increase in EAAT2 protein expression in response to compound treatment at 4 hours (1.54±0.13) and 24 hours (1.98±0.19) post-treatment. Quantification of EAAT2 expression time course (normalized to flotilin; n=4/group). Data represented as mean SEM and analyzed using one-way ANOVA with Tukey post-hoc test. *p<0.05, **p<0.01. FIG. 2C: Compound treatment enhances CA3-CA1 LTP in the hippocampus. Mice were treated with vehicle or compound for seven days and acute hippocampal sections were collected for LTP recordings. […] Data represented as mean SEM analyzed using one-way ANOVA with Bonferroni post-hoc tests. Statistical significance denoted as ***p<0.001.
At 24 hours post-treatment, mice were euthanized and forbrains were harvested. Gliosomes (astrocytic processes) were then isolated for measuring EAAT2 protein levels by Western blot analysis. […] This induction could be seen as early as 4 hours post-treatment (FIG. 2B). […] Acute hippocampal slices were then collected and assessed for changes in long-term potentiation (LTP).

For assay [3], the system named is EAAT2. As to the kind of experiment: EAAT2 protein levels in brains of Beagle dogs by Western blot. The class given is in vivo. The settings on record: oral 20 mg/kg; 0.5, 4, 24 hours post-treatment and seven daily treatment.
Assay [4] relates to EAAT2. As to the kind of experiment: EAAT2 protein levels in brains of wild-type C57BL/6 mice by Western blot. Conditions: 10 mpk p.o. The class given is in vivo. The method, then:
Mice then were euthanized and brains were harvested for examining EAAT2 protein levels by Western blot analysis.
Wild-type C57BL/6 mice (2-3 months old) were treated orally with compound 101 at 0.01, 0.033, 0.1, 0.33, 1, 3.33, 10, 20, 40, 60, and 100 mg/kg/day (voluntary ingestion of compound in honey) for seven or 28 days. Mice then were euthanized and brains were harvested for examining EAAT2 protein levels by Western blot analysis. […] To determine the functional consequences of the increased EAAT2 to the synaptic plasticity, wild-type mice were treated with vehicle or compound 101 at 0.033, 0.33, and 3.3 mg/kg for seven days. Mice were then euthanized and acute hippocampal slices were collected and assessed for changes in long-term potentiation (LTP).

Assay [5] deals with mouse model of Gulf War Illness (GWI). Briefly: Mouse model of Gulf War Illness, mood and cognitive behavior tests. Format: in vivo, C57BL/6J mice. As for the experimental part: Three months old C57BL/6J mice were randomly divided into three groups: control (no GWI, with vehicle), GWI with vehicle, and GWI with compound. For GWI groups, mice were exposed to GWI chemicals and chronic unpredictable stress daily for 6 weeks. GWI chemicals include pyridostigmine (1.3 mg/kg), permethrin (0.13 mg/kg), and DEET (40 mg/kg). The stress regimen included exposure to two different stressors each day. The stressors used in this study include restraint, cage rotation, hot stress, cold stress, predator sound, periods of darkness during the light cycle, wet bedding, replace bedding with water, cage tilt at 45 degree angle, and stroboscopic lighting. […] At 3-months post-exposure, mice were subjected to several behavior tests to assess mood and cognitive functions. These tests included dark and light exploration, elevated plus maze, novelty suppressed feeding, tail suspension open field, novel object recognition, and Barnes maze tests.
After one month of treatment, mice were evaluated for mood and cognitive functions.

For another assay, the system named is GSK3β. Briefly: Phosphorylation state of kinases in forebrain TCL of rTg4510 mice. Format: in vivo. The settings on record: within one hour of treatment, single dose. As for the experimental part: as §1
To identify which kinase/phosphatase is involved, forebrain TCL samples were collected from rTg4510 mice one-hour after a single dose. The phosphorylation (activation) state of kinases that have been reported to target tau as a substrate were assessed. […] This form of phosphorylation inhibits GSK3β activity. Therefore, inactivation of the GSK3β kinase may mediate reduced tau phosphorylation in rTg4510 mice after compound treatment.

The test system of the next assay is human EAAT2. Briefly: EAAT2 protein levels in PA-EAAT2 cells by Western blot. Format: cell-based. The method, then: Compounds were evaluated in PA-EAAT2 cells, a primary astrocyte stably expressing human EAAT2 mRNAs (Kong et al., J Clin Invest. 2014:1255-67). Cells were treated with compound at 0.0375, 0.075, 0.15, 0.3, 0.6, 1.25, 2.5, 5, 10 μM for 24 hr and then harvested for measuring EAAT2 protein levels by Western blot analysis.

The mark [6] stands for this setting: prevention: 20 mg/kg daily from beginning of 6-weeks exposure, tested 3-months post-exposure.
Setting [7] is: treatment: 20 mg/kg at five months post-exposure, one month of treatment.

On to `CN(C)CCn1nc(-c2ccccn2)ccc1=O` [Compound 100, 2-(2-(dimethylamino)ethyl)-6-(pyridin-2-yl)pyridazin-3(2H)-one], for which, in assay [1], the “CA1 field potential responses to stimulation of CA3 afferents (LTP)” value is “significantly increased responses”. In the assay with tau (four months old, after two months of treatment), the “total-tau (transgene expression)” value is “no reduction in total-tau”. Also, the “total tau in the P3 fraction” value in the assay with tau (long-term treatment, Sarkosyl insoluble (P3) fraction) is “very significant reduction”. Moreover, the “phosphorylated (AT8 and PHF1) and conformation specific (MC1) forms of tau” value with tau (long-term treatment, TCL and P3 fraction) is on record as “reduced”. In the assay with tau (single dose, 24 hours later), the “all forms of tau in the P3 fraction” value is “very clear reduction”; the “pTau (AT8 and PHF1) in TCL” value is “significant decrease”; the “total tau (Tau-5) or tau tangles (MC1) in TCL” value is reported as “no change”. For the same compound, the “EAAT2 protein levels in gliosomes” value with EAAT2 [2] was “induced EAAT2 expression in a dose-dependent manner”. The “EAAT2 protein levels in dog brains” value in the assay with EAAT2 [3] is “increased in a time-dependent manner”. Also, in the assay on EAAT2 [4] (7-day dosing), the “EAAT2 induction in vivo in wild-type mice - 7-day dosing by p.o.” value is 1.63-fold @ 10 mpk. Also, in the assay on EAAT2 [4] (28-day dosing), the “EAAT2 induction in vivo in wild-type mice - 28-day dosing by p.o.” value is given as 2.37-fold @ 10 mpk. The “EAAT2 induction in vivo in wild-type mice - single dose by p.o.” value in the assay on EAAT2 [4] (single dose) is 1.56-fold @ 10 mpk. Moreover, in assay [5] (setting [6]), the “anxiety- and depression-like behaviors” value is given as “significantly reduced”; the cognitive functions result is given as “improved cognitive functions”. Also, in assay [5] (setting [7]), the “anxiety- and depression-like behaviors” value is “reduced anxiety- and depression-like behaviors”; the cognitive functions entry is recorded as “significantly improved”. In addition, the “phosphorylation of GSK3β at Ser9” value in the assay with GSK3β is given as “approximately 2 fold”. In the assay with human EAAT2 (PA-EAAT2 cells, 24 hr, tested 0.0375-10 μM), the “concentration that reaches maximum activity” value was 0.6 µM. Also, the EC50 in the assay on human EAAT2 (primary astrocytes, read-out: EAAT2 induction in vitro - primary astrocytes (EC50)) was found to be 250 nM.
